EP3144007A1 (priority 2015, dated 2017)
“And” between values parts separate entries of the source, which are not always exact repeats. Equal entries are not always repeated. Where a SMILES comes first, the peptide text is derived from it. Bridges are numbered along the chain shown (N, C = ends).

Assays:
[1] = test system: cerebellar granule neurons; assay type: cell-based
[2] = test system: cerebellar granule neurons
[3] = biological target: TrkB receptor on cultured cerebellar granule neurons

Compound	internalization of Hc-TeNT fragment (area occupied by Hc-TeNT) [1]	percentage of Hc-TeNT in colocalization with TrkB [1]	percentage of TrkB in co-localization with Hc-TeNT [1] [%]	competition with the Hc-TeNT fragment for binding to cell membrane [2]	IC50 ([2]; 3 h) [µM]	IC50 (concentration of unlabeled competitor necessary to displace 50% of specifically bound Hc-TeNT) ([2]; 3 h) [µg/mL]	IC50 [3]
CSCC[C@@H]1NC(=O)CNC(=O)[C@H](CC(N)=O)NC(=O)[C@H](CC(N)=O)NC(=O)[C@H](CCSC)NC(=O)[C@H](Cc2c[nH]cn2)NC(=O)[C@H]([C@@H](C)O)NC(=O)[C@@H]2CCCN2C(=O)[C@H](CC(N)=O)NC(=O)[C@H](CC(=O)O)NC(=O)[C@H](CC(C)C)NC(=O)[C@H](CCC(N)=O)NC(=O)[C@H](CC(C)C)NC(=O)[C@@H](NC(=O)CN)CSSC[C@@H](C(=O)N[C@@H](CC(N)=O)C(=O)N[C@@H](CC(N)=O)C(=O)NCC(=O)O)NC(=O)[C@H](Cc2c[nH]cn2)NC(=O)[C@H]([C@@H](C)O)NC(=O)[C@@H]2CCCN2C(=O)[C@H](CC(N)=O)NC(=O)[C@H](CC(=O)O)NC(=O)[C@H](CC(C)C)NC(=O)[C@H](CCC(N)=O)NC(=O)[C@H](CC(C)C)NC1=O [d5 peptide] (H-GCLQLDNPTHMNNGMLQLDNPTHCNNG-OH; disulfide 2-24)	seems not to affect	about 44%	51	capable to compete	108	317.3	–
BDNF (from UniProt P23560 129-247) (ligand)	–	–	–	–	–	–	4.2 nM and 0.06 µg/mL
